Among the data in paper PMC8691691 (ACS Chemical Neuroscience, 2021) are IC50 values, retold here.

Holding throughout (assay): [3H]glycine transport by GlyT2 mutant in COS7 cells
Holding throughout (type): cell-based

Experiment [1] concerns the target T1, GlyT2 G214L mutant (Rattus norvegicus, UniProt P58295, G214L).
T1 construct: expressed in transfected cells; host or cells: COS7
T1 sequence (P58295 1-799 G214L): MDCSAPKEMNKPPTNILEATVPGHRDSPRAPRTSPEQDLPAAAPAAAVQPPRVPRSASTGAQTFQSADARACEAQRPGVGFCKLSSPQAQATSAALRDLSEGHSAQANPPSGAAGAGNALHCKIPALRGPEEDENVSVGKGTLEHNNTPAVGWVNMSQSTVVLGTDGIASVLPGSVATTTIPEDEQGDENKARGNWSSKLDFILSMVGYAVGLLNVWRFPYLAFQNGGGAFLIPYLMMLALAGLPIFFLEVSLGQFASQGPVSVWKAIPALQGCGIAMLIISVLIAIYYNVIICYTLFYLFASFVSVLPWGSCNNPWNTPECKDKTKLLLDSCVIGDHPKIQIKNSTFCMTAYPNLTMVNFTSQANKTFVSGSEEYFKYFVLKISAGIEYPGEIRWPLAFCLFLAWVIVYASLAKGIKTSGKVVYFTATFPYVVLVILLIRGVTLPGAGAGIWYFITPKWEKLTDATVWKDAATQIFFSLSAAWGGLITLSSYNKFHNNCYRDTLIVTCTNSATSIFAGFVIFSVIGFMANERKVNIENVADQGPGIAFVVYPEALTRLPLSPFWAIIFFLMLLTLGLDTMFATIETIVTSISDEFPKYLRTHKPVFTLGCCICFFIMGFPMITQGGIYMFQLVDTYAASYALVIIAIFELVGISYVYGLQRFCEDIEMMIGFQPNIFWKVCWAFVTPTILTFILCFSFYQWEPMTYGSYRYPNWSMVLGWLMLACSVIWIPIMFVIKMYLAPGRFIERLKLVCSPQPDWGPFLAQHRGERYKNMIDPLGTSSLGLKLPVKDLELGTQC
From the text: (§1) To validate the predicted interactions between the inhibitors and GlyT2, we used systematic site-directed mutagenesis to construct substitution mutants of the potential residues involved in ligand binding. […] The GlyT2 residues predicted to interact with the inhibitors through its side chain were replaced by amino acids expected to force the loss of the interaction. In the cases where the interaction occurred through the backbone, the inserted amino acid sought to alter the disposition of the substituted residue to lose the coordination.
(§2) Substitution mutants were generated with the QuikChange II Site-Directed Mutagenesis kit (Agilent Technologies, Santa Clara, CA, USA), using rGlyT2 or rGlyT1 subcloned in pCDNA3.[47] The complete coding region of all of the constructs was sequenced to verify that only the desired mutation had been introduced. […] COS7 cells were grown and transfected using Turbofect Transfection Reagent (Thermo Fisher Scientific, Waltham, MA, USA), following the manufacturer’s protocol (2 μL reagent/μg of DNA). Cells were incubated for 48 h at 37 °C until used.
(§3) At the end of the desired time (usually 10 min), reactions were washed and terminated by aspiration. […] A nonlinear curve fitting method was used to obtain IC50 values using Graphpad Prism software, version 6.0, Graphpad, San Diego, CA, USA.

Experiment [2] concerns the target T2, GlyT2 I285F mutant (Rattus norvegicus, UniProt P58295, I285F).
T2 construct: expressed in transfected cells; host or cells: COS7
T2 sequence (P58295 1-799 I285F): T1 sequence (P58295 1-799 G214L) with L214G, I285F
Text: as §1, §2, §3

The target of experiment [3] is T3, GlyT2 I292C mutant (Rattus norvegicus, UniProt P58295, I292C).
T3 construct: expressed in transfected cells; host or cells: COS7
T3 sequence (P58295 1-799 I292C): T1 sequence (P58295 1-799 G214L) with L214G, I292C
Text: as §1, §2, §3

Structures are written as SMILES. Numbering of substitutions follows the chain as printed. Where two headings read alike, the source gives them in different places.

As usually defined, the IC50 is the concentration that inhibits the measured activity by half. Regarding `COc1cc(C(=O)NCC2(N(C)C)CCCC2)cc(OC)c1OCc1ccccc1` [ORG25543, N-[[1-(dimethylamino)cyclopentyl]methyl]-3,5-dimethoxy-4-(phenylmethoxy)benzamide], the IC50 in experiment [1] is 17 ± 10 nM; in experiment [2] it was 15 ± 4 nM; in experiment [3], 24 ± 3 nM.

Regarding `N[C@@H](COC(c1cccc(F)c1)c1ccccc1OCc1ccccc1)C(=O)O` (stereo partly drawn) [ALX1393], the values for the IC50 in experiment [1] (read-out: IC50 (Table S1)), in experiment [2] (read-out: IC50 (Table S1)) and in experiment [3] (read-out: IC50 (Table S1)) were 38 ± 3 nM, 91 ± 6 nM and 36 ± 4 nM, respectively.
